Test results published in PMC7170716 (Nature, 2020).

Columns and labels:
M. smegmatis SID = target: T1, M. smegmatis SID (Mycolicibacterium smegmatis, UniProt A0R6H8); assay: SPR, biotinylated SID on chip, equilibrium fit; type: binding; details: HPLC-purified Fe-cMBT (MW 799 Da), 0-100 μM; single experiment
T1 sequence (A0R6H8 1-250 limits assumed): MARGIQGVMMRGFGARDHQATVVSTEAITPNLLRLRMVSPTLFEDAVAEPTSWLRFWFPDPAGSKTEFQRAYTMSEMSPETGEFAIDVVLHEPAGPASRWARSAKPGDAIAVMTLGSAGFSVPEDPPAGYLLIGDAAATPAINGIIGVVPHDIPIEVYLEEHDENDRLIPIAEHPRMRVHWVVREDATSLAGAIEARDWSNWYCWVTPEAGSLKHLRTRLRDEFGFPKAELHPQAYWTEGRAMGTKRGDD

[1] = target: T2, M. thermoresistibile IrtAB (full-length) (Mycolicibacterium thermoresistibile, UniProt G7CBF5+G7CBF6); assay: ATPase stimulation in nanodiscs, malachite green; type: biochemical; details: 2.5 mM ATP, 10 mM MgSO4, 37 °C, acyl chain length not defined
T2 sequence (G7CBF5 1-908): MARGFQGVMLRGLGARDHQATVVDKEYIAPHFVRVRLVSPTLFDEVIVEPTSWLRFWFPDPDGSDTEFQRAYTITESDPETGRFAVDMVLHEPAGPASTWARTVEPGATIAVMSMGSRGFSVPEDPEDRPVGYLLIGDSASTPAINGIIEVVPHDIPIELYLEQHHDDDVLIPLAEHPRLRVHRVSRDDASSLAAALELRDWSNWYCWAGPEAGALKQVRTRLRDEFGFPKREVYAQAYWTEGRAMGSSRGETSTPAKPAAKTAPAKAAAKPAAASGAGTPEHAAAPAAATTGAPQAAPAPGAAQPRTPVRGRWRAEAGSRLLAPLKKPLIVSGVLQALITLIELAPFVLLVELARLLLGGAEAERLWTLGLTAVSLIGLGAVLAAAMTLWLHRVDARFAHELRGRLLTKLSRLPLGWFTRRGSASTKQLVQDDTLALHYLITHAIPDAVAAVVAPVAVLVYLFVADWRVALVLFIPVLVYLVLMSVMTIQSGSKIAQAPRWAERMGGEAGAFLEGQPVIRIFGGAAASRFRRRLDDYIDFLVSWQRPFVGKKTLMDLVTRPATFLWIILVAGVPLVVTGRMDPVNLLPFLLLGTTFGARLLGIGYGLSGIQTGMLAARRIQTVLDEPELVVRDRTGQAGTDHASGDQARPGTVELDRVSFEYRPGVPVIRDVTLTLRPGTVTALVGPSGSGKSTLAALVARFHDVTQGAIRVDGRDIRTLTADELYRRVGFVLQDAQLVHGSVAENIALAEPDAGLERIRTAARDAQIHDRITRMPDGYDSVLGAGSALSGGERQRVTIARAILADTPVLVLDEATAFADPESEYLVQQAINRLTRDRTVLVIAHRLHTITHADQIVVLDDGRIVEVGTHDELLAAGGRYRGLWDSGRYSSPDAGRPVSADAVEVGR
T2 sequence (G7CBF6 1-579): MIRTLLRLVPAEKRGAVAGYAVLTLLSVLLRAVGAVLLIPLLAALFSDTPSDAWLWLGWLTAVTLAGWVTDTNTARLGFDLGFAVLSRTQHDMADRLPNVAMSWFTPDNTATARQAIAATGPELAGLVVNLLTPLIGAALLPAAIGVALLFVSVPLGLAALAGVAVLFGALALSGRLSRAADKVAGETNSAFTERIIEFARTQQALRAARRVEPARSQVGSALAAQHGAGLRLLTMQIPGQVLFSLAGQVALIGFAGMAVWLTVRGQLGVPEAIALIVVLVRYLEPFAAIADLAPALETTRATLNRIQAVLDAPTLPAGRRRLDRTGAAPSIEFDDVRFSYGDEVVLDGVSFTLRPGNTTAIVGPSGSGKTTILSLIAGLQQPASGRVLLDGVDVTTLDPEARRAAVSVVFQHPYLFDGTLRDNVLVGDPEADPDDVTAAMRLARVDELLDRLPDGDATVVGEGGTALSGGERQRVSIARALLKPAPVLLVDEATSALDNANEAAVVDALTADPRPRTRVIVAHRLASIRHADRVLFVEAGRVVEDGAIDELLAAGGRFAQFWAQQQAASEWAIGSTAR

Substance | Kd (M. smegmatis SID) | fold ATPase stimulation ([1]; Fe-cMBT 0.5-40 μM) | fold ATPase stimulation ([1]; Fe-MBT 0.5-40 μM)
Fe-cMBT | > 200 µM | > 10 fold | –
Fe-MBT | – | – | > 38 fold
